Source: patent US20250177383A1, “DI-CYCLOPROPYL BASED IL-17A MODULATORS AND USES THEREOF” (DICE ALPHA, INC., priority 2022, published 2025)

Legend:
IL-17A/F = target: T1, IL-17A/F (Homo sapiens, UniProt Q16552+Q96PD4); test: IL-17A/F HEK-Blue Cell Assay; type: cell-based; details: HEK-Blue IL-17 reporter cells, IL-17A/F stimulation, 20 hours, SEAP readout; for IC50: read-out: IL17AF HEK Blue pIC50 (converted)
T1 sequence (Q16552 24-155): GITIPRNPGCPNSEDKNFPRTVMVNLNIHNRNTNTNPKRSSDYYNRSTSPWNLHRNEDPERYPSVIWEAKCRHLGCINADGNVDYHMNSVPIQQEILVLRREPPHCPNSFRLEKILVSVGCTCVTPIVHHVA
T1 sequence (Q96PD4 31-163): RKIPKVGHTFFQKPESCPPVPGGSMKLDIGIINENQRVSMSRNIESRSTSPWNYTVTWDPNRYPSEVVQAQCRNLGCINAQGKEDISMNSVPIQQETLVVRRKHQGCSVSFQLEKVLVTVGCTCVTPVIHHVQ
Method: (§1) The HEK-Blue IL-17 reporter cell line (Fisher #NC1408637) was used for cell-based IL-17A/F inhibition assays. Cells were grown and prepared for assays according to the manufacturer's instructions. This cell line consists of HEK 293 cells that were designed to expressed IL-17RA, IL-17R^C, and the ActI adapter molecule, the combination of which, when stimulated by IL-17A/A activates a NFκB promoter and drives expression of a recombinant Secreted Alkaline Phosphatase (SEAP) geneprotein. Media from the cells is then added to a development reagent (Quanti-Blue Substrate, Fisher #NC9711613), and read at A630.
(§2) Compounds were titrated in DMSO and added to the cells immediately before adding IL-17A/A (Custom from R&D systems, untagged IL-17A/F+BSA as a carrier protein). The cells, compound, and IL-17A/A were then incubated for 20 hours before media was removed for SEAP analysis. The resulting inhibition curve was then analyzed using a Dotmatics screening protocol, and IC50 values were determined using a 4-parameter nonlinear fit. DMSO was added to a universal final concentration of 0.1% to optimize background.

IL-17A/A = target: T2, IL-17A/A (Homo sapiens, UniProt Q16552); test: IL-17A/A HEK-Blue Cell Assay; type: cell-based; details: HEK-Blue IL-17 reporter cells, IL-17A/A stimulation, 20 hours, SEAP readout; for IC50: read-out: IL17 AA HEK-5 pIC50 (converted)
T2 sequence (Q16552 24-155): T1 sequence (Q16552 24-155)
Method: as §1, with “IL-17A/A” for “IL-17A/F”, “IL-17R^A,” for “IL-17RA,”, “protein.” for “geneprotein.”
as §2, with “in DMSO, with a top final compound concentration of 10 uM” for “in DMSO”, “IL-17A/A (Genscript #Z03228).” for “IL-17A/A (Custom from R&D systems, untagged IL-17A/F+BSA as a carrier protein).”, “background. IL-17A/A inhibition data is provided in Table 1 for selected compounds.” for “background.”

IC50 (IL-17A/F) [nM]	IC50 (IL-17A/A) [nM]	IL17AF HEK Blue pIC50 (IL-17A/F)	IL17 AA HEK-5 pIC50 (IL-17A/A)	SMILES
100 to 10000	10 to 100			COC(=O)N1CCC[C@H]1C(=O)N[C@@H](C(=O)N1CCN(C)CC1)[C@@H](C)c1ccc(NC(=O)[C@@H](NC(=O)C2(F)CC2)C(C2CC2)C2CC2)c(F)c1 [Compound 280]
	10 to 100	C (7>C≥5)		CCC(=O)NC(C(=O)N1CCN(C)CC1)C(c1ccc(NC(=O)[C@@H](NC(=O)c2ccnn2CC)C(C2CC2)C2CC2)c(F)c1)C(F)(F)F (single isomer, unassigned) [Compound 356]
10 to 100	< 10			CCn1nccc1C(=O)N[C@H](C(=O)Nc1ccc([C@H](C)[C@@H](NC(=O)C(C)(F)F)C(=O)N2CCN(C)[C@H](C)C2)cc1F)C(C1CC1)C1CC1 [Compound 292]
100 to 10000	10 to 100			CCC(OC)C(=O)N[C@@H](C(=O)N1CCN(C)CC1)[C@@H](C)c1ccc(NC(=O)[C@@H](NC(=O)c2ccnn2CC)C(C2CC2)C2CC2)c(F)c1 (single isomer, unassigned) [Compound 339]
100 to 10000	10 to 100			CCn1nccc1C(=O)N[C@H](C(=O)Nc1ccc([C@H](C)[C@@H](NC(=O)C(C)CC(F)(F)F)C(=O)N2CCN(C)CC2)cc1F)C(C1CC1)C1CC1 (single isomer, unassigned) [Compound 331]
100 to 10000	< 10			C[C@@H]1CN(C(=O)[C@H](NC(=O)N(C)C2CC2)[C@@H](C)c2ccc(NC(=O)[C@@H](NC(=O)C3(F)CC3)C(C3CC3)C3CC3)c(F)c2)CCN1C [Compound 271]
	10 to 100	C (7>C≥5)		CCn1nccc1C(=O)N[C@H](C(=O)Nc1ccc([C@H](C)[C@@H](NC(=O)C(C)OCCOC)C(=O)N2CCN(C)CC2)cc1F)C(C1CC1)C1CC1 (single isomer, unassigned) [Compound 315]
100 to 10000	100 to 10000			CCn1nccc1C(=O)N[C@H](C(=O)Nc1ccc([C@H](C)[C@@H](NC(=O)C(C)OCCOC)C(=O)N2CCN(C)CC2)cc1F)C(C1CC1)C1CC1 (single isomer, unassigned) [Compound 314]
	< 10	C (7>C≥5)		CCC(OC)C(=O)N[C@@H](C(=O)N1CCN(C)[C@H](C)C1)[C@@H](C)c1ccc(NC(=O)[C@@H](NC(=O)C2(F)CC2)C(C2CC2)C2CC2)c(F)c1 (single isomer, unassigned) [Compound 337]
100 to 10000	10 to 100			CO[C@@H](C)C(=O)N[C@@H](C(=O)N1CCN(C)C[C@@H]1C)[C@@H](C)c1ccc(NC(=O)[C@@H](NC(=O)C2(F)CC2)C(C2CC2)C2CC2)c(F)c1 [Compound 285]
10 to 100			B (8>B≥7 as B)	CCn1nccc1C(=O)N[C@H](C(=O)Nc1ccc([C@H](C)[C@@H](NC(=O)C(C)CC(F)(F)F)C(=O)N2CCN(C)CC2)cc1F)C(C1CC1)C1CC1 (single isomer, unassigned) [Compound 332]
10 to 100	< 10			CCn1nccc1C(=O)N[C@H](C(=O)Nc1ccc(C(C(NC(=O)[C@H](C)OC)C(=O)N2CCN(C)[C@H](C)C2)C(F)(F)F)cc1F)C(C1CC1)C1CC1 (single isomer, unassigned) [Compound 353]
100 to 10000	10 to 100			CCOCCN(C)C(=O)N[C@@H](C(=O)N1CCN(C)[C@H](C)C1)[C@@H](C)c1ccc(NC(=O)[C@@H](NC(=O)c2ccnn2CC)C(C2CC2)C2CC2)c(F)c1 [Compound 313]
100 to 10000	< 10			COCC(=O)N[C@@H](C(=O)N1CCN(C)[C@H](C)C1)[C@@H](C)c1ccc(NC(=O)[C@@H](NC(=O)c2nonc2C)C(C2CC2)C2CC2)c(F)c1 [Compound 348]
100 to 10000	< 10			CCC(=O)N[C@@H](C(=O)N1CCN(C)[C@H](C)C1)[C@@H](C)c1ccc(NC(=O)[C@@H](NC(=O)c2nonc2C)C(C2CC2)C2CC2)c(F)c1 [Compound 246]
10 to 100	< 10			CCn1nccc1C(=O)N[C@H](C(=O)Nc1ccc([C@H](C)[C@@H](NC(=O)C(C2CC2)C2CC2)C(=O)N2CCN(C)[C@H](C)C2)cc1F)C(C1CC1)C1CC1 [Compound 319]
100 to 10000	100 to 10000			CCC(=O)NC(C(=O)N1CCN(C)CC1)C(c1ccc(NC(=O)[C@@H](NC(=O)c2ccnn2CC)C(C2CC2)C2CC2)c(F)c1)C(F)(F)F (single isomer, unassigned) [Compound 350]
10 to 100	< 10			CCn1nccc1C(=O)N[C@H](C(=O)Nc1ccc([C@H](C)[C@@H](NC(=O)[C@H](C)OC)C(=O)N2CCN(C)[C@H](C)C2)cc1F)C(C1CC1)C1CC1 [Compound 221]
100 to 10000	< 10			CCOC(=O)N[C@@H](C)C(=O)N[C@@H](C(=O)N1CCN(C)CC1)[C@@H](C)c1ccc(NC(=O)[C@@H](NC(=O)C2(F)CC2)C(C2CC2)C2CC2)c(F)c1 [Compound 269]
100 to 10000	10 to 100			CCOCCN(C)C(=O)N[C@@H](C(=O)N1CCN(C)CC1)[C@@H](C)c1ccc(NC(=O)[C@@H](NC(=O)c2ccnn2CC)C(C2CC2)C2CC2)c(F)c1 [Compound 316]
100 to 10000	< 10			CCOC(=O)N1CCC[C@H]1C(=O)N[C@@H](C(=O)N1CCN(C)[C@H](C)C1)[C@@H](C)c1ccc(NC(=O)[C@@H](NC(=O)C2(F)CC2)C(C2CC2)C2CC2)c(F)c1 [Compound 279]
100 to 10000	10 to 100			CCn1nccc1C(=O)N[C@H](C(=O)Nc1ccc([C@H](C)[C@@H](NC(=O)C(C)OCCOC)C(=O)N2CCN(C)[C@H](C)C2)cc1F)C(C1CC1)C1CC1 (single isomer, unassigned) [Compound 311]
100 to 10000	10 to 100			CCC(OC)C(=O)N[C@@H](C(=O)N1CCN(C)[C@H](C)C1)[C@@H](C)c1ccc(NC(=O)[C@@H](NC(=O)c2ccnn2CC)C(C2CC2)C2CC2)c(F)c1 (single isomer, unassigned) [Compound 335]
100 to 10000	< 10			CCn1nccc1C(=O)N[C@H](C(=O)Nc1ccc([C@H](C)[C@@H](NC(=O)[C@@H](C)F)C(=O)N2CCN(C)[C@H](C)C2)cc1F)C(C1CC1)C1CC1 [Compound 349]
100 to 10000	10 to 100			CCOC(C)C(=O)N[C@@H](C(=O)N1CCN(C)[C@H](C)C1)[C@@H](C)c1ccc(NC(=O)[C@@H](NC(=O)C2(F)CC2)C(C2CC2)C2CC2)c(F)c1 (single isomer, unassigned) [Compound 321]
100 to 10000	10 to 100			CCn1nccc1C(=O)N[C@H](C(=O)Nc1ccc([C@H](C)[C@@H](NC(=O)[C@@H](C)F)C(=O)N2CCNC(CF)C2)cc1F)C(C1CC1)C1CC1 (single isomer, unassigned) [Compound 303]
100 to 10000	100 to 10000			CCn1nccc1C(=O)N[C@H](C(=O)Nc1ccc(C(C(NC(=O)[C@H](C)OC)C(=O)N2CCN(C)[C@H](C)C2)C(F)(F)F)cc1F)C(C1CC1)C1CC1 (single isomer, unassigned) [Compound 355]
10 to 100	< 10			COCC(=O)N[C@@H](C(=O)N1CCN(C)CC1)[C@@H](C)c1ccc(NC(=O)[C@@H](NC(=O)c2ccnn2C(C)C)C(C2CC2)C2CC2)c(F)c1 [Compound 345]

SMILES	IC50 (IL-17A/F) [nM]	IC50 (IL-17A/A) [nM]	IL17AF HEK Blue pIC50 (IL-17A/F)	IL17 AA HEK-5 pIC50 (IL-17A/A)
CO[C@@H](C)C(=O)N[C@@H](C(=O)N1C[C@H]2CC[C@@H](C1)N2C)[C@@H](C)c1ccc(NC(=O)[C@@H](NC(=O)C2(F)CC2)C(C2CC2)C2CC2)c(F)c1 [Compound 294]	100 to 10000	10 to 100		
